Source: patent publication US10415057B2, “Pseudotyping of retroviral vectors, methods for production and use thereof for targeted gene transfer and high throughput screening” (BUNDESREPUBLIK DEUTSCHLAND, LETZ[…], priority 2006, dated 2019)

System: CD20 positive Raji cells
Experiment: Selective transduction and Gancyclovir killing of CD20 positive Raji cells in a Raji/K-562 mixture
Settings: 10 μM GCV; gfp transduced cells
Description: The mutation of the MeV H protein comprises the four point mutations Y481A, R533A, S548L and F549S which ablates productive interactions with CD46 and SLAM, respectively. […] Furthermore, transduced cells can be detected by CD34 expression. In parallel, as a control, the same vector particles having packaged the go gene were applied.
For the generation of the vector particles calcium phosphate transfection was performed. 24 h before transfection, 6.5*10^6 HEK-293T cells were seeded into a T75 flask. 1 h before transfection the medium of the cells was exchanged against 7 ml fresh medium (DMEM with 4.5 g/l glucose, 3.7 g/l NaHCO3, 10% FCS, 1% glutamin). […]
The HmutscFvCD20Δ18/FcΔ30 pseudotyped HIV-1 vector particles either with packaged go gene or with packaged cd34tk39 gene were 1:5 diluted in 300 μl medium (RPMI 1640 with 2 g/l NaHCO3, 10% FCS, 1% glutamine) containing a mixture of 2*10^3 CD20+ Raji and 2*10^3 CD20− K-562 cells. […] Afterwards the percentages of CD20/GFP and CD20/CD34 double positive cells, respectively, were measured by FACS (time point 0 h in FIG. 18). […] At different time points the cells were stained with the respective antibodies and the double positive cells were measured by FACS (Dako Galaxy flow cytometry system; s. FIGS. 18A-18B).

Nc1nc(O)c2ncn(COC(CO)CO)c2n1 [GCV, Gancyclovir]
Toxic effect of GCV by its own on the cells (CD20/GFP double positive fraction): no toxic effect
